Experimental findings from the supplement of paper PMC11208160 are described below.
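Note: IS621 recombinase and bridge RNA in Escherichia coli cells.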

A short description of this series: recombinant barcode read abundance after kanamycin selection (control-corrected) (log10(CPM+1)); higher = more efficient recombination; sequences stand for … in AGTGCAGAGAAAATCGGCCAGTTTTCTCTGCCTGCAGTCCGCATGCCGT…AGATTTATGCAGCGGACTGCCTTTCTCCCAAAGTGATAAACCGGACAGTATCATGGACCGGTTTTCCCGGTAATCCGTATTTGCAAGGTTGGTTTCACT; site = the 11-nt target. The protocol: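 Pooled E. coli target-specificity screen for the IS621 bridge recombinase. Each library plasmid pairs an 11-nt target (CT core) with a bridge RNA whose target-binding loop (9-nt LTG + 4-nt RTG) is reprogrammed; the rest of the 177-nt WT IS621 bridge RNA scaffold is fixed. The plasmid is co-electroporated with a WT donor plasmid; recombinase is induced with 0.1 mM IPTG and recombinants are selected on kanamycin. Recombinant barcodes are sequenced, converted to CPM, averaged over two biological replicates and corrected by the unselected control CPM. Molecule = full bridge RNA written as DNA: LTG = specificity nt 1-9, RTG = reverse complement of specificity nt 8-11, in the WT scaffold.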
Turning to “AAGTGAGCTTGGGTTCTAACCTGTTGCAG (site AAGTGAGCTCT)”, the “recombinant barcode read abundance (log10)” value was 2.69.
With “AAGTGAGCTTGGGTTCTAACCTGTTGCAG (site AATAGAGCTCT)” the figure was 0.12; with “AAGTGGACTTGGGTTCTAACCTGTTGCCT (site AAGTCGACTAG)”, 0.121.
As to “AAGTGGACTTGGGTTCTAACCTGTTGCCT (site AAGTGGACTAG)”, the “recombinant barcode read abundance (log10)” value was determined as 1.93.
Regarding “AAGTTAGCTTGGGTTCTAACCTGTTGCGG (site AAGTTAGCTCC)”, the “recombinant barcode read abundance (log10)” value was 2.28.
Next, “AAGTTAGCTTGGGTTCTAACCTGTTGCGG (site GGCAACTCTAG)”: 0.108; “AAGTTGACTTGGGTTCTAACCTGTTGCCT (site AAATTGACTAG)”: 0.378; “AAGTTGACTTGGGTTCTAACCTGTTGCCT (site AACTTGACTAG)”: 0.248.
Regarding “AAGTTGACTTGGGTTCTAACCTGTTGCCT (site AAGTTGACTAG)”, the “recombinant barcode read abundance (log10)” value was 1.57.
For “AAGTTGACTTGGGTTCTAACCTGTTGCCT (site AATTTGACTAG)”, the “recombinant barcode read abundance (log10)” value amounted to 0.304.
Next, “AATAACCCTTGGGTTCTAACCTGTTGCCT (site AATAACCCTAG)”: 1.2.
With “AATAACCCTTGGGTTCTAACCTGTTGCCT (site ACTAACCCTAG)” the figure was 0.145; with “AATAACCCTTGGGTTCTAACCTGTTGCCT (site AGTAACCCTAG)”, 0.146.
With “AATAACCCTTGGGTTCTAACCTGTTGCCT (site ATTAACCCTAG)” the figure was 0.0794; with “AATAGCTCTTGGGTTCTAACCTGTTGCCT (site AATAGCTCTAG)”, 0.82.
For the sequence “AATAGCTCTTGGGTTCTAACCTGTTGCCT (site CATAGCTCTAG)”, the “recombinant barcode read abundance (log10)” value is 0.0982.
Next, “AATAGCTCTTGGGTTCTAACCTGTTGCCT (site GATAGCTCTAG)”: 0.166; “AATAGCTCTTGGGTTCTAACCTGTTGCCT (site TATAGCTCTAG)”: 0.116.
For the sequence “AATATCTCTTGGGTTCTAACCTGTTGCCA (site AATATCTCTTG)”, the “recombinant barcode read abundance (log10)” value amounted to 0.278.
Next, “AATATCTCTTGGGTTCTAACCTGTTGCCA (site CTACCTACTCC)”: 0.144; “AATATGCCTTGGGTTCTAACCTGTTGCCT (site AATATGCCTAG)”: 0.582.
Next, “AATATGCCTTGGGTTCTAACCTGTTGCCT (site AATCTCCCTAG)”: 0.0372.
On to “AATGCTTCTTGGGTTCTAACCTGTTGCCT (site AATGCTTCTAG)”, for which the “recombinant barcode read abundance (log10)” value was found to be 1.05.
In the case of “AATGCTTCTTGGGTTCTAACCTGTTGCCT (site AATTGTTCTAG)”, the “recombinant barcode read abundance (log10)” value stood at 0.167.
With “AATGGGACTTGGGTTCTAACCTGTTGCCT (site AATGGGACTAG)” the figure was 1.72.
Consider “AATGGGACTTGGGTTCTAACCTGTTGCCT (site AATGGGCCTAG)”, for which the “recombinant barcode read abundance (log10)” value is 0.171.
On to “AATGGGACTTGGGTTCTAACCTGTTGCCT (site AATGGGGCTAG)”, for which the “recombinant barcode read abundance (log10)” value stood at 0.222.
Next, “AATGGGACTTGGGTTCTAACCTGTTGCCT (site AATGGGTCTAG)”: 0.0882; “AATGGGGCTTGGGTTCTAACCTGTTGCCT (site AATGGGACTAG)”: 0.369.
As to “AATGGGGCTTGGGTTCTAACCTGTTGCCT (site AATGGGCCTAG)”, the “recombinant barcode read abundance (log10)” value came to 0.189.
With “AATGGGGCTTGGGTTCTAACCTGTTGCCT (site AATGGGGCTAG)” the figure was 0.79; with “AATGGGGCTTGGGTTCTAACCTGTTGCCT (site AATGGGTCTAG)”, 0.274; with “AATGTATCTTGGGTTCTAACCTGTTGCCT (site AATGAATCTAG)”, 0.
With “AATGTATCTTGGGTTCTAACCTGTTGCCT (site AATGCATCTAG)” the figure was 0.0382.
Next, “AATGTATCTTGGGTTCTAACCTGTTGCCT (site AATGGATCTAG)”: 0.0435; “AATGTATCTTGGGTTCTAACCTGTTGCCT (site AATGTATCTAG)”: 1.17.
In the case of “AATTCGACTTGGGTTCTAACCTGTTGCCT (site AATTCGACTAG)”, the “recombinant barcode read abundance (log10)” value was determined as 0.399.
Next, “AATTCGACTTGGGTTCTAACCTGTTGCCT (site ACTTCGACTAG)”: 0.0747; “AATTCGACTTGGGTTCTAACCTGTTGCCT (site AGTTCGACTAG)”: 0.222; “AATTCGACTTGGGTTCTAACCTGTTGCCT (site ATTTCGACTAG)”: 0.
Next, “AATTGTCCTTGGGTTCTAACCTGTTGCTT (site AATTGTCCTAA)”: 0.246.
With “AATTGTCCTTGGGTTCTAACCTGTTGCTT (site AATTGTCCTAC)” the figure was 0.257.
Take “AATTGTCCTTGGGTTCTAACCTGTTGCTT (site AATTGTCCTAG)”: the “recombinant barcode read abundance (log10)” value worked out at 0.0453.
Next, “AATTGTCCTTGGGTTCTAACCTGTTGCTT (site AATTGTCCTAT)”: 0.125; “AATTGTTCTTGGGTTCTAACCTGTTGCCT (site AATGCTTCTAG)”: 0.028; “AATTGTTCTTGGGTTCTAACCTGTTGCCT (site AATTGTTCTAG)”: 0.253.
Take “AATTTCTCTTGGGTTCTAACCTGTTGCCT (site AATTTCTCTAG)”: the “recombinant barcode read abundance (log10)” value was determined as 0.0321.
As for “AATTTCTCTTGGGTTCTAACCTGTTGCCT (site CATTTCTCTAG)”, the “recombinant barcode read abundance (log10)” value was found to be 0.0907.
Take “AATTTCTCTTGGGTTCTAACCTGTTGCCT (site GATTTCTCTAG)”: the “recombinant barcode read abundance (log10)” value came out at 0.496.
With “AATTTCTCTTGGGTTCTAACCTGTTGCCT (site TATTTCTCTAG)” the figure was 0.0924.
With “ACAAAGACTTGGGTTCTAACCTGTTGCGC (site ACAAAGACTGC)” the figure was 0.656; with “ACAAAGACTTGGGTTCTAACCTGTTGCGC (site ACACAGACTGC)”, 0.242; with “ACAAAGACTTGGGTTCTAACCTGTTGCGC (site ACAGAGACTGC)”, 0.326.
With “ACAAAGACTTGGGTTCTAACCTGTTGCGC (site ACATAGACTGC)” the figure was 0.137.
“ACAAAGGCTTGGGTTCTAACCTGTTGCGG (site ACAAAAGCTCC)”: the “recombinant barcode read abundance (log10)” value is 1.69.
On to “ACAAAGGCTTGGGTTCTAACCTGTTGCGG (site ACAAAGGCTCC)”, for which the “recombinant barcode read abundance (log10)” value worked out at 2.51.
Next, “ACAAGACCTTGGGTTCTAACCTGTTGCAT (site ACAAGACCTAT)”: 1.47; “ACAAGACCTTGGGTTCTAACCTGTTGCAT (site TTCTAGTCTTA)”: 0.0713; “ACAATACCTTGGGTTCTAACCTGTTGCCT (site ACAATACCTAG)”: 1.16.
Turning to “ACAATACCTTGGGTTCTAACCTGTTGCCT (site ATAATACCTAG)”, the “recombinant barcode read abundance (log10)” value stood at 0.143.
Take “ACAATAGCTTGGGTTCTAACCTGTTGCTG (site ACAATAGCTCA)”: the “recombinant barcode read abundance (log10)” value is 0.738.
Turning to “ACAATAGCTTGGGTTCTAACCTGTTGCTG (site ACACTAGCTCA)”, the “recombinant barcode read abundance (log10)” value is 0.0138.
As to “ACAATAGCTTGGGTTCTAACCTGTTGCTG (site ACAGTAGCTCA)”, the “recombinant barcode read abundance (log10)” value was 0.0118.
With “ACAATAGCTTGGGTTCTAACCTGTTGCTG (site ACATTAGCTCA)”, the “recombinant barcode read abundance (log10)” value was 0.0649.
Next, “ACAATGACTTGGGTTCTAACCTGTTGCCT (site ACAATGACTAG)”: 0.904; “ACAATGACTTGGGTTCTAACCTGTTGCCT (site ACAGTGACTAG)”: 0.132; “ACACCGCCTTGGGTTCTAACCTGTTGCCT (site ACACCGCCTAG)”: 0.299.
Regarding “ACACCGCCTTGGGTTCTAACCTGTTGCCT (site CCACCGCCTAG)”, the “recombinant barcode read abundance (log10)” value is 0.118.
With “ACACCGCCTTGGGTTCTAACCTGTTGCCT (site GCACCGCCTAG)” the figure was 0.192; with “ACACCGCCTTGGGTTCTAACCTGTTGCCT (site TCACCGCCTAG)”, 0.118.
Next, “ACACGTGCTTGGGTTCTAACCTGTTGCGA (site ACACGTGCTTC)”: 1.46.
With “ACACGTGCTTGGGTTCTAACCTGTTGCGA (site CAGAAGTCTAA)” the figure was 0.215.
For “ACACTAGCTTGGGTTCTAACCTGTTGCTG (site ACAATAGCTCA)”, the “recombinant barcode read abundance (log10)” value is 0.313.
